We go through seven substances from article PMC9004346, “Development of small cyclic peptides targeting the CK2α/β interface” (Chemical Communications (Cambridge, England), 2022).

Where two headings read alike, the source gives them in different places.

With CC7RLYGFKCC7, the ring closure, yield after HPLC (crosslinker bond, 33-membered ring, N-(4,6-divinylpyrimidin-2-yl)-N-methylglycine, phosphate buffer pH 8/DMF, 1.6 mM) came to 17%.

On to CC8RLYGFKWC8, for which, under “thioether bond, 27-membered ring, I2, H2O/MeCN, 0.46 mM”, the ring closure, yield after HPLC was determined as 25%.

Substance JC2RLYGFKXC2 came in with a ring closure, yield after HPLC (triazole bond, 27-membered ring, CuSO4/Na ascorbate/DIEA, H2O, 1.3 mM) of 19%.

Regarding CC4RLYGFKCC4, under “crosslinker bond, 29-membered ring, TCEP, dichloroacetone, phosphate buffer pH 8/DMF 1:2, 1.3 mM”, the ring closure, yield after HPLC turned out to be 8%.

As for GXC1RLYGFKWHXC1GG, the ring closure, yield after HPLC (crosslinker bond, 39-membered ring, 3,5-diethynylbenzoic acid/CuSO4/THPTA/Na ascorbate, tBuOH/H2O 1:1, 0.48 mM) stood at 2%.

For the substance JC3RLYGFKXC3, for the setting “triazole bond, 26-membered ring, [Cp*RuCl]4 30 mol%, tBuOH/H2O 1:1, 0.61 mM”, the ring closure, yield after HPLC came out at 3%.

Under “crosslinker bond, 27-membered ring, TCEP/K2CO3, CH2I2/NEt3, H2O/THF, 3.7 mM”, CC6RLYGFKCC6 yielded a ring closure, yield after HPLC of 19%.
